Source: patent US20240384268A1, “Oligonucleotides” (Hudson Institute of Medical Research, priority 2021, published 2024)

Molecular target: T1, TLR8 (Homo sapiens, UniProt Q9NR97)
T1 sequence (Q9NR97 27-1041): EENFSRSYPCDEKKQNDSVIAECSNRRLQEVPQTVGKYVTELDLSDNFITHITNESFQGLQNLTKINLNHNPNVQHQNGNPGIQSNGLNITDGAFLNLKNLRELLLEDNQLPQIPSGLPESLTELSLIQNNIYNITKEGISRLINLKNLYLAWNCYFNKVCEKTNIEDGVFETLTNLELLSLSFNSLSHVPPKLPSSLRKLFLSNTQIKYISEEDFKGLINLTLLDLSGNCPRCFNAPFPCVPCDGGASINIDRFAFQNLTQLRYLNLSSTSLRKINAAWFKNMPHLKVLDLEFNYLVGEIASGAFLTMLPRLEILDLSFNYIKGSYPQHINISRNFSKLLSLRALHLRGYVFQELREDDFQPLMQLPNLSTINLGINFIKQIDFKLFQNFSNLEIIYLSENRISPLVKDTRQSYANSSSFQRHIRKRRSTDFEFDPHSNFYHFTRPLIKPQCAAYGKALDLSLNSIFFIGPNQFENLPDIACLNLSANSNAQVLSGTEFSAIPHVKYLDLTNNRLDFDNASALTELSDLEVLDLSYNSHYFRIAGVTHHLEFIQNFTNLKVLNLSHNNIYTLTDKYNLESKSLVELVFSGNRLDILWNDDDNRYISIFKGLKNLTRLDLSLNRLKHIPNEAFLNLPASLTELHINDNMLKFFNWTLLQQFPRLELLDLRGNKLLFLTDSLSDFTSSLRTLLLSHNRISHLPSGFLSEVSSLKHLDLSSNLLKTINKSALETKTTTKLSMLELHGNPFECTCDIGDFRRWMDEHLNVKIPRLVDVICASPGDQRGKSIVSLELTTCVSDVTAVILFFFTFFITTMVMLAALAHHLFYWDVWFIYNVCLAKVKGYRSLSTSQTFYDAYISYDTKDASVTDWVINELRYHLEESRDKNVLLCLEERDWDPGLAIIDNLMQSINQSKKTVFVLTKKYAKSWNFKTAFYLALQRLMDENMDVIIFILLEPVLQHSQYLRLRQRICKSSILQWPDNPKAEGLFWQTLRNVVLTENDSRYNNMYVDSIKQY
Assay: HEK-TLR8 NF-κB-luciferase reporter, R848 or Motolimod stimulation (potentiation or inhibition)
Assay type: cell-based
Parameters: expressed in transfected cells; host or cells: 293XLhTLR8 (HEK293)
Details: relative to R848 only; for TLR8 100 nM (averaged NF-κB-Luciferase level relative to R848 condition, fold increase): ASO 100 nM; for TLR8 500 nM (averaged NF-κB-Luciferase level relative to R848 condition, fold increase): ASO 500 nM

Sequence	TLR8 100 nM (averaged NF-κB-Luciferase level relative to R848 condition, fold increase)	TLR8 500 nM (averaged NF-κB-Luciferase level relative to R848 condition, fold increase)
GAAAGGTTATGCAAGG (antisense; LNA-modified, pattern not given here) [CTNN2B-916 LNA KL]	1.156	4.110
GACTATACGCGCAATA (antisense; LNA-modified, pattern not given here) [NC5 LNA PS 3-10-3]	0.777	3.376
GAGGTCTTGGCTTCGT (antisense; LNA-modified, pattern not given here) [MB21D1-525 LNA V1]	0.574	0.642
GATGGCCTCCCATCTC (antisense; LNA-modified, pattern not given here) [HPRT LNA-331 V1]	0.278	0.186
GCACACTTCGTACCCA (antisense; LNA-modified, pattern not given here) [CAMSAP1-4915 LNA V1]	0.319	1.091
GCACTTCAGTCTGAGC (antisense; LNA-modified, pattern not given here) [MB21D1-719 LNA KL]	0.495	0.864
GGAGGTCTTGGCTTCG (antisense; LNA-modified, pattern not given here) [MB21D1-526 LNA V1]	0.575	0.882
GGCACTTTGCCTCCTT (antisense; LNA-modified, pattern not given here) [EGFR-2859 LNA V1]	0.652	0.862
GGCTCGGCTTGCCTAC (antisense; LNA-modified, pattern not given here) [CAMSAP1-5594 LNA V1]	0.374	0.706
GGTCATTACAATAGCT (antisense; LNA-modified, pattern not given here) [HPRT LNA-475 KL]	0.500	1.381
GGTCTTGGCTTCGTGG (antisense; LNA-modified, pattern not given here) [MB21D1-523 LNA V1]	0.616	1.386
GTCAAGGGCATATCCT (antisense; LNA-modified, pattern not given here) [HPRT LNA-732 KL]	0.543	2.301
GTCCTTGCACGTGGCT (antisense; LNA-modified, pattern not given here) [EGFR-1015 LNA V1]	0.570	0.936
GTCTCTGGAGCTTCCT (antisense; LNA-modified, pattern not given here) [CAMSAP1-2456 LNA V1]	0.764	2.402
GTCTTCATCGGCCCTG (antisense; LNA-modified, pattern not given here) [CAMSAP1-2113 LNA V1]	0.664	2.086
GTGATCTTGACATGCT (antisense; LNA-modified, pattern not given here) [EGFR-2790 LNA KL]	0.583	1.806
GTGATGGCCTCCCATC (antisense; LNA-modified, pattern not given here) [HPRT LNA-333 V1]	0.517	1.112

Sequence	TLR8 100 nM (averaged NF-κB-Luciferase level relative to R848 condition, fold increase)	TLR8 500 nM (averaged NF-κB-Luciferase level relative to R848 condition, fold increase)
TACTTTCCGAGGTGTC (antisense; LNA-modified, pattern not given here) [CAMSAP1-1739 LNA KL]	0.417	1.585
TCCACAATCAAGACAT (antisense; LNA-modified, pattern not given here) [HPRT LNA-551 KL]	0.474	0.893
TCCATACCCAAGGCAT (antisense; LNA-modified, pattern not given here) [CTNN2B-2446 LNA V1]	0.595	1.334
TCCGCCCAAAGGGAAC (antisense; LNA-modified, pattern not given here) [HPRT LNA-1027 KL]	0.541	0.725
TCCTTGCACGTGGCTT (antisense; LNA-modified, pattern not given here) [EGFR-1014 LNA V1]	0.491	0.601
TCGTGGGGTCCTTTTC (antisense; LNA-modified, pattern not given here) [HPRT LNA-660 V1]	0.778	2.966
TCTTCATCGGCCCTGC (antisense; LNA-modified, pattern not given here) [CAMSAP1-2112 LNA V1]	0.595	1.393
TCTTGGCTTCGTGGAG (antisense; LNA-modified, pattern not given here) [MB21D1-521 LNA V1]	0.541	0.197
TGACAAAGATTCACTG (antisense; LNA-modified, pattern not given here) [HPRT LNA-1353 KL]	0.633	1.756
TGACTGTCTTGAGGGT (antisense; LNA-modified, pattern not given here) [MB21D1-1483 LNA KL]	0.973	3.210
TGCTCCTCGGTCTCCC (antisense; LNA-modified, pattern not given here) [CAMSAP1-1850 LNA V1]	1.097	4.771
TGGTCCACAACCCCTT (antisense; LNA-modified, pattern not given here) [MB21D1-697 LNA V1]	0.559	1.454
TGGTGGCCACCCATCT (antisense; LNA-modified, pattern not given here) [CTNN2B-2479 LNA V1]	0.464	0.604
TGTCCTTGCACGTGGC (antisense; LNA-modified, pattern not given here) [EGFR-1016 LNA V1]	0.636	1.158
TGTCTGGAAGCTTCCT (antisense; LNA-modified, pattern not given here) [CTNN2B-808 LNA V1]	0.600	0.871
TTCAGGCGCTGCCTTG (antisense; LNA-modified, pattern not given here) [CAMSAP1-2709 LNA V1]	0.479	0.764
